Measured values taken from patent US20250257060A1, “OXADIAZOLE COMPOUND, PHARMACEUTICAL COMPOSITION COMPRISING SAME, AND USE THEREOF” (SUZHOU GENHOUSE BIO CO., LTD., priority 2022, published 2025).

Assays:
[1] = system: Salmonella typhimurium auxotroph strains TA98 and TA100; assay: Ames assay (mutagenicity test); assay type: cell-based; conditions: TA98 and TA100, with or without S9
Procedure: The test strains adopted in the mutagenicity test were Salmonella typhimurium auxotroph strains TA98 and TA100. The test was performed using a 6-well plate in the presence or absence of the S9 metabolic activation system, with both a solvent control group (DMSO) and a positive control group set, with 2 replicate wells per treatment group. Compounds were set at 5 concentrations ranging from 62.5 μg/well to 1000.0 μg/well (equivalent to 312.5 μg/dish to 5000.0 μg/dish in the standard Ames assay). The plate was incubated at 37° C. for 48-72 h, and then bacterial toxicity was measured in each well and the number of mutant colonies in each well was counted. When the number of revertant colonies of the test compound groups is more than twice the number of spontaneous revertant colonies of the solvent control group in a reproducible and dose-dependent manner, the test substance is considered to have positive mutagenicity for the test strain.
In this test, dimethyl sulfoxide (DMSO) was used to dissolve the test substance and served as a negative (solvent) control. In the S9-free group (−S9), 2-nitrofluorene and sodium azide were used as positive controls for TA98 and TA100, respectively; in the S9 group (+S9), 2-aminofluorene was used as a positive control for TA98 and TA100.

[2] = Phase I metabolic stability in dog liver microsomes (DLMs); assay type: in vitro ADME, beagle dogs; design: half-life: dose or concentration left out as unconfirmed; conditions: DLM; for Remaining rate (NCF = 60 min): buffer instead of NADPH regeneration system; for Remaining rate (T = 60 min): with NADPH; for CLint scaled at 1 µM / half-life / microsomal CLint at 1 M: beagle, dog, liver microsomes, pH 7.4; for microsomal CLint at 1 M: read-out: CLint (mic)
Procedure: (§1) Phase I metabolic stability of the test compounds in liver microsomes of CD-1 mice (MLMs), Sprague-Dawley rats (RLMs), beagle dogs (DLMs), cynomolgus monkeys (CLMs), and humans (HLMs) was evaluated.
(§2) The animal and human liver microsomes used in the test system were purchased from Xenotech, Corning, or other qualified suppliers and stored in a freezer at a temperature below −60° C. prior to use.
(§3) The test samples and control compounds were separately incubated with animal and human liver microsomes at 37±1° C. for a period of incubation time up to 60 min. The samples were removed at the indicated time points, and the reaction was stopped with acetonitrile or other organic solvents containing an internal standard. After centrifugation, the resulting supernatants were assayed by liquid chromatography-tandem mass spectrometry (LC-MS/MS).
(§4) 73.21 g of dipotassium hydrogenphosphate trihydrate and 10.78 g of potassium dihydrogenphosphate were dissolved in 4000 mL of ultrapure water. The solution was adjusted to pH 7.40±0.10 with 10% phosphoric acid or 1 M potassium hydroxide to make a final concentration of 100 mM.
(§5) The test sample powder was prepared into a stock solution at a certain concentration with DMSO or other organic solvents, which was then further diluted with a proper organic solvent.
(§6) Microsomes of each species were diluted into a 2× working solution with a 100 mM potassium phosphate buffer. The final concentration of the microsomes in the reaction system was 0.5 mg/mL.
(§7) An appropriate amount of nicotinamide adenine dinucleotide phosphate (NADP) and isocitric acid (ISO) powder was weighed out, dissolved in a magnesium chloride solution, and shaken and mixed well. An appropriate amount of isocitrate dehydrogenase (IDH) was added, and the mixture was mixed well by gently turning upside down. The final concentrations in the reaction system were: 1 mM NADP, 1 mM magnesium chloride, 6 mM ISO, and 1 unit/mL IDH.
(§8) Incubation was performed in a 96-well plate. Eight incubation plates were prepared and designated T0, T5, T15, T30, T45, T60, Blank60, and NCF60, respectively. The first 6 plates corresponded to reaction time points of 0, 5, 15, 30, 45, and 60 min, respectively. No test sample or control compound was added to the Blank60 plate, and samples were taken after 60 min of incubation. In the NCF60 plate, incubation was performed for 60 min using the potassium phosphate buffer instead of the NADPH regeneration system solution. Three replicates were made for samples in all conditions.
(§9) The microsomes and the test sample or control compound were mixed, and then the incubation plates Blank60, T5, T15, T30, T45, and T60 except for TO and NCF60 were placed in a 37° C. water bath for pre-incubation for about 10 min. In the incubation plate TO, a stop solution was first added, followed by addition of the NADPH regeneration system working solution, and 98 μL of the potassium phosphate buffer was added to each sample well of the incubation plate NCF60 to initiate the reaction. After the pre-incubations of the incubation plates Blank60, T5, T15, T30, T45, and T60 were completed, 98 μL of the NADPH regeneration system working solution was added to each sample well to initiate the reaction. The reaction temperature was 37±1° C., the final volume of the reaction was 200 μL, and the reaction system included 0.5 mg/mL microsomes, […], 1 mM NADP, 6 mM ISO, and 1 unit/mL IDH.
(§10) At 5 min, 15 min, 30 min, 45 min, and 60 min, a cold stop solution containing an internal standard was added to the reaction plate to stop the reaction.
(§11) All the reaction plates after the reaction was stopped were shaken well and centrifuged at 3220×g at 4° C. for 20 min. After the supernatant was diluted according to a certain proportion, LC-MS/MS analysis was performed.
(§12) Sample analysis was performed by the liquid chromatography-tandem mass spectrometry (LC-MS/MS) method without standard curves and quality control samples. […]

[3] = Phase I metabolic stability in monkey liver microsomes (CLMs); assay type: in vitro ADME, cynomolgus monkeys; design: microsomal CLint: dose or concentration left out as unconfirmed; conditions: CLM; for Remaining rate (NCF = 60 min): buffer instead of NADPH regeneration system; for Remaining rate (T = 60 min): with NADPH; for CLint scaled at 1 µM / half-life at 1 M / microsomal CLint: cynomolgus monkey, liver microsomes, pH 7.4; for microsomal CLint: read-out: CLint (mic)
Procedure: as §1, §2, §3, §4, §5, §6, §7, §8, §9, §10, §11, §12

Row | Compound | Pollutant mutagenicity test results [1] | Remaining rate (NCF = 60 min) [2] | Remaining rate (T = 60 min) [2] | CLint scaled at 1 µM [2] | half-life [2] | microsomal CLint at 1 M [2] | Remaining rate (NCF = 60 min) [3] | Remaining rate (T = 60 min) [3] | CLint scaled at 1 µM [3] | half-life at 1 M [3] | microsomal CLint [3]
1 | O=C(N[C@H]1[C@H](N2Cc3ccc(-c4nnc(C(F)F)o4)cc3S2(=O)=O)CCCC1(F)F)C(F)F [Compound 61] | Negative | – | – | – | – | – | – | – | – | – | –
2 | O=C(N[C@@H]1CCCC[C@H]1N1Cc2ccc(-c3nnc(C(F)F)o3)cc2S1(=O)=O)C(F)F [Compound 2] | – | 90.9% | 85.8% | < 13.8 mL/min/kg | > 2.42 h | < 9.6 µL/min/mg | 101.5% | 88.8% | < 13 mL/min/kg | > 2.42 h | < 9.6 µL/min/mg
3 | CC(F)(F)C(=O)N[C@@H]1CCCC[C@H]1N1Cc2ccc(-c3nnc(C(F)F)o3)cc2S1(=O)=O [Compound 1] | – | 98.9% | 86.6% | < 13.8 mL/min/kg | > 2.42 h | < 9.6 µL/min/mg | 94.8% | 79.1% | < 13 mL/min/kg | > 2.42 h | < 9.6 µL/min/mg
